Laboratory results taken from patent US20150366877A1, “METHODS OF TREATMENT OF HUMAN CYTOMEGALOVIRUS INFECTION AND DISEASES WITH BROMODOMAIN INHIBITORS” (Washington University, priority 2013, published 2015).
Where two headings read alike, the source gives them in different places.

Assays:
[1] = test system: HCMV laboratory strain AD169-GFP; experiment: microbe, parasite or virus in culture; assay type: cell-based, Human cytomegalovirus; settings: Human betaherpesvirus 5, AD169, HFF
Procedure: (§1) Drug effects were calculated as a percentage of reduction in GFPU in the presence of each drug concentration comported to the GFPU determined in the absence of drug. The dose-response curves were calculated using the GraphPad Prism 6 (GraphPad Software, USA),
(§2) In these experiments, the inventors determined the IC50 and IC90 values of respective BET bromodomain inhibitors against HCMV infection using fluorescence reduction assay (FIG. 9; Table 3) s.

[2] = test system: HCMV clinical strain TR-GFP; experiment: microbe, parasite or virus in culture; assay type: cell-based, Human cytomegalovirus; settings: Human betaherpesvirus 5, HFF
Procedure: as §1, §2

[3] = test system: HCMV laboratory strain AD169-GFP; experiment: Time of addition assay on HCMV replication (GFP units); assay type: cell-based, Human cytomegalovirus; settings: fixed concentration ~6.5×IC50, added at indicated hpi, GFP units after 7 days
[4] = test system: HCMV; experiment: Administration to a patient infected with HCMV (HCMV titers); assay type: in vivo, Human cytomegalovirus
Procedure: A patient is infected with HCMV. A health practitioner administers an amount calculated to provide 1 μM of the bromodomain inhibitor GSK525762A by intraperitoneal injection. The patient's HCMV titers decrease.

[5] = test system: HCMV; experiment: Anti-HCMV activity in cultured primary human fibroblasts; assay type: cell-based, Human cytomegalovirus
[6] = test system: HCMV late proteins (pp71, pp150 and pp28); experiment: Immunoblot analysis of HCMV proteins in infected HFFs; assay type: cell-based, Human cytomegalovirus; settings: MOI 3, different concentrations, 24, 48 and 72 hours post infection
Procedure: The method is as described by Perng et al. 2011. HFFs were infected with HCMV, strain AD169, at an MOI of 3 in the presence of different concentrations of JQ1. Culture media was changed every 24 hours to maintain the concentration of JQ1. Cells were harvested at 24, 48 and 72 hours post infection, HCMV proteins, immediate-early protein (IE1), early protein (UL69), and late proteins (pp71, pp150 and pp28) were determined by immunoblot analysis. (FIG. 4)

[7] = test system: HCMV laboratory strain AD169-GFP; experiment: TCID50 assay of culture supernatant (release of viral particles), AD169-GFP; assay type: cell-based, Human cytomegalovirus; settings: Human betaherpesvirus 5, AD169
Procedure: (§3) In these experiments, the inventors used TCID50 assays to quantify the IC50 of (+)-JQ-1 in both HCMV laboratory-adapted and clinical strains (FIG. 9; Table 5). HFFs were infected with laboratory strain. AD169-GFP or laboratory strains FIXGFP & Toledo at an MOI of 3 in the presence of (+)-JQ-1 at the range of 0-2,000 nM. Culture media were changed every 24 hrs to maintain the concentration of JQ1. At 5 dpi, viral titers were determined by TCID50.

[8] = test system: fatty acid synthase (FASN) and solute carrier family 38 member 5 (SLC38A5); experiment: RNA-seq differential expression of FASN and SLC38A5 in HCMV-infected HFF; assay type: cell-based, human; settings: 250 uM, MOI 3, 48 hpi
Procedure: HFF cells were mock-infected or HCMV infected with laboratory strain AD169-GFP at a MOI of 3. (FIG. 12A) HFF cells were infected with AD169-GFP at a MOI of 3 in the presence or absence of […] (+)-JQ-1. (FIG. 12B) Cells from both (A) and (B) were harvested at 48 hpi and the total RNA was extracted using a column-based RNA purification kit (Qiagen). RNA integrity was evaluated with a Nano-drop spectrometer (NanoDrop, Wilmington, Del.). Messenger RNA purification, fragmentation, construction of sequencing library and sequencing were performed. The differential expression profiles of two c-Myc inducible genes, fatty acid synthase (FASN) and solute carrier family 38 member 5 (SLC38A5), were determined using an EdgeR procedure.

[9] = test system: HCMV clinical strain TR-GFP; assay type: cell-based, Human cytomegalovirus
[10] = test system: HCMV AD169 strain; assay type: cell-based, Human cytomegalovirus
[11] = test system: HCMV clinical strain FIX-GFP; experiment: TCID50 assay of culture supernatant (release of viral particles), FIX-GFP; assay type: cell-based, Human cytomegalovirus; settings: Human betaherpesvirus 5
Procedure: as §3

[12] = test system: HCMV, strain AD169; experiment: TCID50 assay of viral progeny in culture media, AD169-infected HFFs; assay type: cell-based, Human cytomegalovirus; settings: for reduction of viral titer: 125 nM; for IC50: Human betaherpesvirus 5, AD169, 120 h
Procedure: In this experiment, the inventors used TCID50 assays to determine the amounts of infectious viral particle in culture supernatants release from HCMV-infected cells, HFFs were infected with HCMV, strain AD169, at an MOI of 3 in the presence of different concentrations of JQ1. Culture media was changed every 24 hours to maintain the concentration of JQ1. At 5 (FIG. 2A) and 6 (FIG. 2B) days post infection (DPI), infected culture media was collected and titers of viral progeny in media was determined by TCID50 assay as described by Perng et al., 2011. The detection limit is indicated by the dashed line. (FIG. 2)
HFFs were infected with HCMV, strain AD 169, at an MOI of 3 in the presence of JQ1 at the range of 0-2000 nM. Culture media was changed every 24 hours to maintain the concentration of JQ1. At 5 days post infection, viral titers were determined by TCID50. […] These calculated IC50 values are much lower than published values used in the treatment of cancer.

[13] = test system: HCMV clinical strain Toledo; experiment: TCID50 assay of culture supernatant (release of viral particles), Toledo; assay type: cell-based, Human cytomegalovirus; settings: Human betaherpesvirus 5, MOI 3, 5 dpi
Procedure: as §3

[14] = test system: HCMV, strain AD169 infected human foreskin fibroblasts; experiment: Phase-contrast/fluorescence microscopy of HCMV-infected HFF (cytomegaly morphology); assay type: cell-based, Human cytomegalovirus; settings: 500 nm
Procedure: In these experiments, human foreskin fibroblasts (HFF) were infected with HCMV, strain AD169, at a multiplicity of infection (MOI) of 3 in the presence or absence of JQ1 […]. Culture media was changed every 24 hours to maintain the concentration of JQ1. Infected cells were examined by phase-contrast or fluorescence microscopy at 72 or 96 hours post infection (hpi). “Cytomegalic” cells appear larger in size with a characteristic intranuclear, homogenous, eosinophilic inclusion which can occupy the entire nucleus of the cell.

COc1ccccc1S(=O)(=O)Nc1ccc2c(c1)CN(C)C(=O)N2 [PFI-1, 2-Methoxy-N-(3-methyl-2-oxo-1,2,3,4-tetrahydro-6-quinazolinyl)benzenesulfonamide]
IC50 [1]: 790 nM | IC90 [1]: 2560 nM | IC50 [2]: 420 nM | IC90 [2]: 1220 nM

Cc1sc2c(c1C)C(c1ccc(Cl)cc1)=N[C@@H](CC(N)=O)c1nnc(C)n1-2 [CPI-203, (S)-2-(4-(4-chlorophenyl)-2,3,9-trimethyl-6H-thieno [3,2-f][1,2,4]triazolo[4,3-a][1,4]diazepin-6-yl)acetamide]
IC50 [1]: 40 nM | IC90 [1]: 140 nM

CCOC(=O)Nc1cc(-c2ccc(C)c(NS(C)(=O)=O)c2)nn2c(C)nnc12 [Bromosporine, N-[6-(3-methanesulfonamido-4-methylphenyl)-3-methyl-[1,2,4]triazolo[4,3-b]pyridazin-8-yl]carbamate]
IC50 [1]: 290 nM | IC90 [1]: 640 nM

Cc1sc2c(c1C)C(c1ccc(Cl)cc1)=N[C@@H](CC(=O)Nc1ccc(O)cc1)c1nnc(C)n1-2 [OTX-015, (S)-2-[4-(4-chlorophenyl)-2,3,9-trimethyl-6H-thieno [3,2-f][1,2,4]triazolo-[4,3-a][1,4]diazepin-6-yl]-N-(4-hydroxyphenyl)acetamide]
effect of the time of addition on HCMV replication [3]: block HCMV infections regardless of times post infection | IC50 [1]: 69 nM | IC90 [1]: 210 nM | IC50 [2]: 29 nM | IC90 [2]: 85 nM | patient's HCMV titers ([4]; therapeutically effective amount, oral administration): decrease

CCNC(=O)C[C@@H]1N=C(c2ccc(Cl)cc2)c2cc(OC)ccc2-n2c(C)nnc21 [I-BET762, 2-[(4S)-6-(4-chlorophenyl)-8-methoxy-1-methyl-4H-[1,2,4]triazolo[4,3-a][1,4]benzodiazepine-4-yl]-N-ethylacetamide]
effect of the time of addition on HCMV replication [3]: block HCMV infections regardless of times post infection | patient's HCMV titers ([4]; amount calculated to provide 1 μM, intraperitoneal injection): decrease

COc1cc(OC)c2c(=O)[nH]c(-c3cc(C)c(OCCO)c(C)c3)nc2c1 [RVX-208, 2-[4-(2-hydroxyethoxy)-3,5-dimethyl-phenyl]-5,7-dimethoxy-3H-quinazolin-4-one]
IC50 [1]: 7930 nM | IC90 [1]: 31100 nM | IC50 [2]: 3160 nM | IC90 [2]: 6670 nM | patient's HCMV titers ([4]; amount calculated to provide 19 μM, intraperitoneal injection): decrease | Concentration to inhibit HCMV replication [5]: 14.063 to 28.125 µM

COc1cc2c(cc1-c1c(C)noc1C)ncc1[nH]c(=O)n(C(C)c3ccccn3)c12 (stereo in doubt) [I-BET151, 7-(3,5-Dimethyl-1,2-oxazol-4-yl)-8-methoxy-1-[(1R)-1-(2-pyridinyl)ethyl]-1,3-dihydro-2H-imidazo[4,5-c]quinolin-2-one]
IC50 [1]: 160 nM | IC90 [1]: 550 nM | IC50 [2]: 110 nM | IC90 [2]: 160 nM | patient's HCMV titers ([4]; amount calculated to provide 0.5 μM, intraperitoneal injection): decrease | Concentration to inhibit HCMV replication [5]: 0.391 to 0.781 µM

Nc1nc(O)c2ncn(COC(CO)CO)c2n1 [Ganciclovir]
IC50 [1]: 1780 nM | IC90 [1]: 25000 nM

Cc1sc2c(c1C)C(c1ccc(Cl)cc1)=N[C@@H](CC(=O)OC(C)(C)C)c1nnc(C)n1-2 [(+)-JQ1, 4-(4-chlorophenyl)-2,3,9-trimethyl-1,1-dimethylethyl ester-6H-thieno[3,2-f][1,2,4]triazolo[4,3-}{1,4}diazepine-6S-acetic acid]
accumulation of HCMV late proteins [6]: modestly inhibits | IC50 [7]: 18 nM | IC90 [7]: 49 nM | up-regulation of FASN and SLC38A5 by HCMV infection [8]: up-regulation is reversed | production of infectious viral particles (EM analysis) [9]: blocks the production of infectious viral particles | production of infectious viral particles (electron micrographs) [10]: blocks the production of infectious viral particles | effect of the time of addition on HCMV replication [3]: block HCMV infections regardless of times post infection | IC50 [11]: 18 nM | IC90 [11]: 31 nM | IC50 [1]: 77 nM | IC90 [1]: 210 nM | IC50 [2]: 39 nM | IC90 [2]: 93 nM | patient's HCMV titers ([4]; therapeutically effective amount, intraperitoneal injection): decrease | reduction of viral titer ([12]; 5 days post infection): approximately 1000 fold | reduction of viral titer ([12]; 6 days post infection): greater than 1000 fold | viral titer ([12]; 250 nM, 5 days post infection): further reduced the viral titer | viral titer ([12]; 250 nM, 6 days post infection): undetectable | viral titer ([12]; 500 nM, 5 days post infection): undetectable | viral titer ([12]; 500 nM, 6 days post infection): undetectable | IC50 ([12]; read-out: IC50 (50% viral replication inhibitory concentration), AD169, MOI 3, 5 days post infection, calculated using four parameters): 21.6 nM | IC50 ([12]; read-out: IC50 (50% viral replication inhibitory concentration), AD169, MOI 3, 5 days post infection, calculated using three parameters): 17.8 nM | IC50 [13]: 22 nM | IC90 [13]: 37 nM | morphology of infected HFF cells ([14]; MOI 3, 72 hours post infection): lost the “cytomegalic” morphology and an accumulation of dead cells was present | morphology of infected HFF cells ([14]; MOI 3, 96 hours post infection): lost the “cytomegalic” morphology and a greater accumulation of floating dead cells were present

Nc1ccn(C[C@@H](CO)OCP(=O)(O)O)c(=O)n1 [Cidofovir]
IC50 [1]: 150 nM | IC90 [1]: 1080 nM

COc1cccc(N2CCN(C3=Nc4c(F)cccc4[C@H](CC(=O)O)N3c3cc(C(F)(F)F)ccc3OC)CC2)c1 [Letermovir]
effect of the time of addition on HCMV replication [3]: cannot control the viral infection after 48 hours post-infection | IC50 [1]: 4.1 nM | IC90 [1]: 5.8 nM
